In paper PMC6290023 (Scientific Reports, 2018):
Peptide text beside a SMILES is read from it.

Experiments:
[1] = Stability of MHP1 in mouse serum (HPLC/MS); format: in vitro ADME; details: mouse (CD-1(ICR)) serum, 200 μg/mL MHP1, 37 °C, HPLC UV 210 nm, mean ± SD
Description: Mouse (CD-1(ICR)) serum was obtained from KAC (Kyoto, Japan) and stored below −15 °C until use. MHP1 (2 mg/mL in ultrapure water) was spiked in mouse serum on ice to obtain a final concentration of 200 μg/mL. The serum was incubated at 37 °C and aliquots of the reaction mixture collected at the incubation times 0, 10, 30, and 60 min. Each aliquot was deproteinized with the addition of an ice-cold solvent (acetonitrile: methanol: acetic acid = 500:500:1). The mixtures were left at −20 °C for 20 minutes and stored on ice. After the addition of 1% acetic acid, the mixture was vigorously vortexed and centrifuged (12000 × g, 4 °C, 10 min). The supernatant was injected into the HPLC system and analyzed by reversed-phase chromatography with a water–acetonitrile (0.1% trifluoroacetic acid) linear gradient elution. MHP1 was detected by ultraviolet light at 210 nm.

[2] = system: LPS-stimulated MG6 cells; details: peptide incubated at 37 °C for 24 h; cited from earlier work
Description: This might be a result of the key sequence of MHP1 being preserved owing to N-terminus acetylation, which generally makes the peptide resistant to protease degradation. The difference in causing sedimentation at 37 °C for 24 h between MHP1-Ac and MHP1-AcN was dependent on the existence of C-terminal amidation, which has been reported to promote the stabilization of the secondary structure of the peptide.

[3] = system: TLR2, 7, 8; details: cited from earlier work
From the text: (§1) To solve this problem, we developed a novel peptide “microglial healing peptide1 (MHP1)”, which is a partial peptide of RANKL, to inhibit […] inflammation without activating osteoclast. The binding sites of RANKL for its receptor RANK responsible for osteoclastogenesis were not included in the MHP1 sequence, but other binding sites that are unrelated to osteoclastogenesis (DE and EF loops) were included. […] The sequence of MHP1 is “[…]” and we demonstrat ...

[4] = system: mouse osteoclast precursor cells; details: cited from earlier work
From the text: as §1

[5] = system: tMCAo model in mice; details: cited from earlier work
Description: As we have previously shown that intravenous injection of MHP1 (150 μL, 2 mg/ml), started from 6 hrs after tMCAo and followed by subcutaneous injection with Alzet pump (200 μL, 2 mg/ml) for 24 h, is effective, we studied whether a lower dose of MHP1-AcN was effective in reducing ischemic injury.

[6] = system: FeCl3-induced thrombosis model in CCA; test: FeCl3-induced thrombosis model in CCA, thrombolysis with tPA; format: in vivo; details: mouse, tPA 10 mg/kg 30 min post-CCA occlusion
Description: The ischemic damage was evaluated at 48 h after MCAo in sections stained with cresyl violet. Coronal sections (12 μm thickness) were made at −1.4, −0.7, 0, 0.7 and 1.4 mm from the bregma, mounted on the stereomicroscope and photographed. The volume of the infarct was calculated by the sum of each area of all sections corrected by cerebral edema and multiplied by the thickness of the slices. In the experiment of tPA-induced hemorrhage, PE10-catheter was placed in the right internal jugular vein at 6 h after ischemia. The nylon suture was then removed and 10% of the MHP-AcN mixture (150 µg/mice) and tPA (10 mg/kg) were injected followed by continuous injection of residual mixture of MHP1-AcN and tPA using a syringe pump (UNIVENTOR 400 ANAESTHESIA UNIT, ZTN, MALTA). In the experiment of FeCl3 -induced thrombosis model in CCA, a piece of filter paper soaked in 7.5% FeCl3 was placed on the right CCA for 1 min and it was rinsed with saline. Blood flow was recorded by using a laser speckle blood flow imager (OMEGAZONE OZ-2, OMEGAWAVE, INC., Tokyo, Japan). tPA (10 mg/kg) or mixture of MHP1-AcN (150 μg/mice) and tPA was started to be administered at 30 min after CCA occlusion.

Row | remaining at 10 min, 200 μg/mL ([1]; 10 min, read-out: residual MHP1 remaining intact in mouse serum) [%] | residual MHP1 remaining intact in mouse serum ([1]; 30 min) [%] | remaining at 0.5 h, 200 μg/mL ([1]; 30 min, read-out: residual MHP1 remaining intact in mouse serum) [%] | remaining at 1 h, 200 μg/mL ([1]; 60 min, read-out: residual MHP1 remaining intact in mouse serum) [%] | Molecule | anti-inflammatory effects after incubation at 37 °C for 24 h [2] | effect on TLR2, 7, 8-induced inflammations [3] | effect on RANKL-induced osteoclast activation [4] | effect on osteoclast activation (peptide alone) [4] | efficacy in tMCAo ([5]; i.v. 150 μL, 2 mg/ml from 6 hrs after tMCAo, then s.c. Alzet pump 200 μL, 2 mg/ml for 24 h) | ischemic injury in tMCAO model ([5]; intracerebroventricularly 4 h, or intravenously 4 or 6 h post-ischemia) | time from tPA application to clot lysis (recanalization) [6]
1 | 83 ± 5.9 | 50.3 ± 3.6 | 50 | 27.5 ± 3.2 | CC[C@H](C)[C@H](NC(=O)[C@H](CO)NC(=O)[C@@H](NC(=O)[C@H](CCCCN)NC(=O)[C@@H](NC(=O)[C@@H](NC(=O)[C@H](Cc1ccc(O)cc1)NC(=O)[C@@H](NC(=O)[C@H](CCSC)NC(=O)[C@@H](N)CC(C)C)C(C)C)C(C)C)C(C)C)[C@@H](C)O)C(=O)N[C@@H](CCCCN)C(=O)N[C@H](C(=O)N1CCC[C@H]1C(=O)N[C@@H](CO)C(=O)N[C@@H](CO)C(=O)N[C@@H](Cc1c[nH]cn1)C(=O)N[C@@H](CC(N)=O)C(=O)N[C@@H](CC(C)C)C(=O)N[C@@H](CCSC)C(=O)N[C@@H](CCCCN)C(=O)NCC(=O)NCC(=O)N[C@@H](CO)C(=O)N[C@H](C(=O)N[C@@H](CCCCN)C(=O)N[C@@H](CC(N)=O)C(=O)N[C@@H](Cc1c[nH]c2ccccc12)C(=O)N[C@@H](CO)C(=O)NCC(=O)N[C@@H](CC(N)=O)C(=O)O)[C@@H](C)O)[C@@H](C)CC [MHP1] (H-LMVYVVKTSIKIPSSHNLMKGGSTKNWSGN-OH) | loses its anti-inflammatory effects | inhibited | inhibited RANKL-induced osteoclast activation | did not affect osteoclast activation | effective | reduced | 
2 |  |  |  |  | tPA: tissue plasminogen activator, thrombolytic used in acute ischemic stroke |  |  |  |  |  |  | approximately 20 min
